Experimental data as given in ChEMBL document CHEMBL1144573, “Lead optimization of [(S)-gamma-(arylamino)prolyl]thiazolidine focused on gamma-substituent: Indoline compounds as potent DPP-IV inhibitors” (Bioorg Med Chem, 2007).

How the values were obtained:
[1] = target: Dipeptidyl peptidase 4 (Rattus norvegicus, UniProt P14740); experiment: Inhibition of DPP4 in rat plasma by fluorescence assay; type: cell-free
[2] = target: Dipeptidyl peptidase 4 (Homo sapiens, UniProt P27487); type: cell-free, Plasma
Chain of Dipeptidyl peptidase 4 (Homo sapiens, UniProt P27487) (P27487 whole entry): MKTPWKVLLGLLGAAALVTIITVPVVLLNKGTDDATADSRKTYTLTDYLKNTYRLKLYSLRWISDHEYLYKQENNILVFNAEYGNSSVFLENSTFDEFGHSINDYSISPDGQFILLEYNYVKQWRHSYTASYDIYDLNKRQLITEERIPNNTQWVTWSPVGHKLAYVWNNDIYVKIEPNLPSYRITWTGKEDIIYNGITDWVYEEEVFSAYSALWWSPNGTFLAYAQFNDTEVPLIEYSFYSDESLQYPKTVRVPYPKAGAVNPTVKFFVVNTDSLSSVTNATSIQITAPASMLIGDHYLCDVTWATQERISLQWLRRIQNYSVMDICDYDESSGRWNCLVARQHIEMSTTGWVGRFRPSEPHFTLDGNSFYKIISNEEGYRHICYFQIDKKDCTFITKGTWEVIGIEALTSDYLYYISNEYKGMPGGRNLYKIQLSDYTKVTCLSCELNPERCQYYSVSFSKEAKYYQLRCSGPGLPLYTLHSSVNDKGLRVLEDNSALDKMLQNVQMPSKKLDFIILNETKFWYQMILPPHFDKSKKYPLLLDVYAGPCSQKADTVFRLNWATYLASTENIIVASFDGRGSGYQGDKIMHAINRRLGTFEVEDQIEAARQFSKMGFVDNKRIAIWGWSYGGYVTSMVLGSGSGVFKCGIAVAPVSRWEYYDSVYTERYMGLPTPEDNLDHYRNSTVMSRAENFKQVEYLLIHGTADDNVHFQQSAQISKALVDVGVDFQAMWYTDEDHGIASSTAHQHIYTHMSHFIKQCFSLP

Chain of Dipeptidyl peptidase 4 (Rattus norvegicus, UniProt P14740) (P14740 whole entry): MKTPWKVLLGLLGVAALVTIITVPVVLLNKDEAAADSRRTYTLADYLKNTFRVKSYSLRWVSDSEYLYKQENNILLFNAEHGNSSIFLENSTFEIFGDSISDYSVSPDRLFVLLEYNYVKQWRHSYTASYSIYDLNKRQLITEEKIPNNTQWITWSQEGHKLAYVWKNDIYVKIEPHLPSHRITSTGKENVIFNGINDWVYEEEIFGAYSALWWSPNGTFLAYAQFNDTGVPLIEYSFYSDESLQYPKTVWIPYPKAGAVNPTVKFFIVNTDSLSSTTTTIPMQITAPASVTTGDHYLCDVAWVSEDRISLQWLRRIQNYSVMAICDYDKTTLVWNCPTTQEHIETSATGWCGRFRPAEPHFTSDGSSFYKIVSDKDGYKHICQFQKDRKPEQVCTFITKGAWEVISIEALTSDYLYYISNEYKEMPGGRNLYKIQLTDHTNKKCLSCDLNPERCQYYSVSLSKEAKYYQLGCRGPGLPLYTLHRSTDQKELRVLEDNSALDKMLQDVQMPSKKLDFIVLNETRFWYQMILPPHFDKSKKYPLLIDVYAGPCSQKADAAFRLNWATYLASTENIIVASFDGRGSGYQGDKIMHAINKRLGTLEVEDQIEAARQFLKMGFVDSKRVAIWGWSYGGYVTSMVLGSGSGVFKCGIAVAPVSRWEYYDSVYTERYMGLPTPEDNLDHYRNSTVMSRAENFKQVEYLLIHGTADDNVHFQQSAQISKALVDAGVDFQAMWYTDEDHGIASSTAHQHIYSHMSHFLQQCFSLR

IC50 [1] | IC50 [2] | SMILES
10.7 nM |  | O=C([C@@H]1C[C@H](N2CCc3cc(Br)ccc32)CN1)N1CCSC1
13.6 nM |  | CN(Cc1ccc(C#N)cc1)[C@@H]1CN[C@H](C(=O)N2CCSC2)C1
> 300 nM | > 300 nM | N#Cc1ccc(C(=O)O[C@@H]2CN[C@H](C(=O)N3CCSC3)C2)cc1
13.4 nM |  | O=C([C@@H]1C[C@H](N2CCc3cc(Cl)ccc32)CN1)N1CCSC1
54.9 nM |  | COc1ccc(N[C@@H]2CN[C@H](C(=O)N3CCSC3)C2)cc1

More lines, now with the values behind:

SMILES | IC50 [1] | IC50 [2]
O=C([C@@H]1C[C@H](N2CCc3cc(F)ccc32)CN1)N1CCSC1 | 10.1 nM | 
O=C([C@@H]1C[C@H](NS(=O)(=O)c2ccccc2)CN1)N1CCSC1 | > 300 nM | > 300 nM
O=C([C@@H]1C[C@H](N2CCc3cc([N+](=O)[O-])ccc32)CN1)N1CCSC1 | 10.3 nM | 
N#Cc1ccc(CN(CCO)[C@@H]2CN[C@H](C(=O)N3CCSC3)C2)cc1 | 23 nM | 
O=C(O[C@@H]1CN[C@H](C(=O)N2CCSC2)C1)c1ccccc1 | > 300 nM | > 300 nM
O=C(N[C@@H]1CN[C@H](C(=O)N2CCSC2)C1)c1ccccc1 |  | > 300 nM
O=C([C@@H]1C[C@H](N2CCc3ccccc32)CN1)N1CCSC1 | 19.5 nM | 
N#Cc1ccc(S(=O)(=O)N[C@@H]2CN[C@H](C(=O)N3CCSC3)C2)cc1 | > 300 nM | > 300 nM
